Experimental data published in PubChem BioAssay AID1259407 (Chemical Carcinogenesis Research Information System (CCRIS), 2018).
Active and inactive are the calls of the source. No rule for the calls is given here.

Tested on: CCRIS mutagenicity, Ames/micronucleus/aberration tests
Experiment: CCRIS mutagenicity studies
[1] = Test System: AMES SALMONELLA TYPHIMURIUM, Strain/Indicator: TA98, Metabolic Activation: NONE, Method: PREINCUBATION
[2] = Test System: AMES SALMONELLA TYPHIMURIUM, Strain/Indicator: TA100, Metabolic Activation: NONE, Method: PREINCUBATION
[3] = Test System: AMES SALMONELLA TYPHIMURIUM, Strain/Indicator: TA1535, Metabolic Activation: NONE, Method: PREINCUBATION

With CC(=O)OO as the molecule, how does the mutagenic call (Test System: AMES SALMONELLA TYPHIMURIUM, Strain/Indicator: TA97, Metabolic Activation: HAMSTER, LIVER, S-9, AROCLOR 1254 (10 OR 30%), Method: PREINCUBATION) read?
Its mutagenic call is “inactive; negative”.

What about the mutagenic call (Test System: AMES SALMONELLA TYPHIMURIUM, Strain/Indicator: TA97, Metabolic Activation: NONE, Method: PREINCUBATION) of the same molecule?
Its mutagenic call is “inactive; negative”.

And the mutagenic call (Test System: AMES SALMONELLA TYPHIMURIUM, Strain/Indicator: TA97, Metabolic Activation: RAT, LIVER, S-9, AROCLOR 1254 (10 OR 30%), Method: PREINCUBATION)?
The mutagenic call was “inactive; negative”.

What about the mutagenic call (Test System: AMES SALMONELLA TYPHIMURIUM, Strain/Indicator: TA98, Metabolic Activation: HAMSTER, LIVER, S-9, AROCLOR 1254 (10 OR 30%), Method: PREINCUBATION) of the same molecule?
The mutagenic call was “inactive; negative”.

And the mutagenic call [1]?
The mutagenic call was “inactive; negative”.

And the mutagenic call (Test System: AMES SALMONELLA TYPHIMURIUM, Strain/Indicator: TA98, Metabolic Activation: RAT, LIVER, S-9, AROCLOR 1254 (10 OR 30%), Method: PREINCUBATION)?
The mutagenic call was “inactive; negative”.

What about the mutagenic call (Test System: AMES SALMONELLA TYPHIMURIUM, Strain/Indicator: TA100, Metabolic Activation: HAMSTER, LIVER, S-9, AROCLOR 1254 (10 OR 30%), Method: PREINCUBATION) of the same molecule?
Its mutagenic call is “inactive; negative”.

And the mutagenic call [2]?
Its mutagenic call is “inactive; negative”.

What about the mutagenic call (Test System: AMES SALMONELLA TYPHIMURIUM, Strain/Indicator: TA100, Metabolic Activation: RAT, LIVER, S-9, AROCLOR 1254 (10 OR 30%), Method: PREINCUBATION) of the same molecule?
The mutagenic call was “inactive; negative”.

And the mutagenic call (Test System: AMES SALMONELLA TYPHIMURIUM, Strain/Indicator: TA1535, Metabolic Activation: HAMSTER, LIVER, S-9, AROCLOR 1254 (10 OR 30%), Method: PREINCUBATION)?
The mutagenic call was “inactive; negative”.

What about the mutagenic call [3] of the same molecule?
The mutagenic call was “inactive; negative”.

What about the mutagenic call (Test System: AMES SALMONELLA TYPHIMURIUM, Strain/Indicator: TA1535, Metabolic Activation: RAT, LIVER, S-9, AROCLOR 1254 (10 OR 30%), Method: PREINCUBATION) of the same molecule?
The mutagenic call was “inactive; negative”.

C=CC(=O)OCCCC was tested. Which mutagenic call (Test System: AMES SALMONELLA TYPHIMURIUM, Strain/Indicator: TA98, Metabolic Activation: HAMSTER, LIVER, S-9, AROCLOR 1254 (10%), Method: PREINCUBATION) did it give?
The mutagenic call was “inactive; negative”.

What about the mutagenic call [1] of the same molecule?
The mutagenic call was “inactive; negative”.

And the mutagenic call (Test System: AMES SALMONELLA TYPHIMURIUM, Strain/Indicator: TA98, Metabolic Activation: NONE, Method: STANDARD PLATE)?
The mutagenic call was “inactive; negative”.

And the mutagenic call (Test System: AMES SALMONELLA TYPHIMURIUM, Strain/Indicator: TA98, Metabolic Activation: RAT, LIVER, S-9, AROCLOR 1254 (10%), Method: PREINCUBATION)?
The mutagenic call was “inactive; negative”.

And the mutagenic call (Test System: AMES SALMONELLA TYPHIMURIUM, Strain/Indicator: TA98, Metabolic Activation: RAT, LIVER, S-9, AROCLOR 1254, Method: STANDARD PLATE)?
Its mutagenic call is “inactive; negative”.

What about the mutagenic call (Test System: AMES SALMONELLA TYPHIMURIUM, Strain/Indicator: TA98, Metabolic Activation: RAT, LIVER, S-9, SODIUM PHENOBARBITAL, Method: STANDARD PLATE) of the same molecule?
The mutagenic call was “inactive; negative”.

What about the mutagenic call (Test System: AMES SALMONELLA TYPHIMURIUM, Strain/Indicator: TA100, Metabolic Activation: HAMSTER, LIVER, S-9, AROCLOR 1254 (10%), Method: PREINCUBATION) of the same molecule?
The mutagenic call was “inactive; negative”.

And the mutagenic call [2]?
The mutagenic call was “inactive; negative”.

What about the mutagenic call (Test System: AMES SALMONELLA TYPHIMURIUM, Strain/Indicator: TA100, Metabolic Activation: NONE, Method: STANDARD PLATE) of the same molecule?
Its mutagenic call is “inactive; negative”.

What about the mutagenic call (Test System: AMES SALMONELLA TYPHIMURIUM, Strain/Indicator: TA100, Metabolic Activation: RAT, LIVER, S-9, AROCLOR 1254 (10%), Method: PREINCUBATION) of the same molecule?
Its mutagenic call is “inactive; negative”.

What about the mutagenic call (Test System: AMES SALMONELLA TYPHIMURIUM, Strain/Indicator: TA100, Metabolic Activation: RAT, LIVER, S-9, AROCLOR 1254, Method: PREINCUBATION) of the same molecule?
The mutagenic call was “inactive; negative”.

What about the mutagenic call (Test System: AMES SALMONELLA TYPHIMURIUM, Strain/Indicator: TA100, Metabolic Activation: RAT, LIVER, S-9, AROCLOR 1254, Method: STANDARD PLATE) of the same molecule?
The mutagenic call was “inactive; negative”.

What about the mutagenic call (Test System: AMES SALMONELLA TYPHIMURIUM, Strain/Indicator: TA100, Metabolic Activation: RAT, LIVER, S-9, SODIUM PHENOBARBITAL, Method: STANDARD PLATE) of the same molecule?
The mutagenic call was “inactive; negative”.

What about the mutagenic call (Test System: AMES SALMONELLA TYPHIMURIUM, Strain/Indicator: TA1535, Metabolic Activation: HAMSTER, LIVER, S-9, AROCLOR 1254 (10%), Method: PREINCUBATION) of the same molecule?
The mutagenic call was “inactive; negative”.

And the mutagenic call [3]?
The mutagenic call was “inactive; negative”.

What about the mutagenic call (Test System: AMES SALMONELLA TYPHIMURIUM, Strain/Indicator: TA1535, Metabolic Activation: NONE, Method: STANDARD PLATE) of the same molecule?
Its mutagenic call is “inactive; negative”.

What about the mutagenic call (Test System: AMES SALMONELLA TYPHIMURIUM, Strain/Indicator: TA1535, Metabolic Activation: RAT, LIVER, S-9, AROCLOR 1254 (10%), Method: PREINCUBATION) of the same molecule?
The mutagenic call was “inactive; negative”.

What about the mutagenic call (Test System: AMES SALMONELLA TYPHIMURIUM, Strain/Indicator: TA1535, Metabolic Activation: RAT, LIVER, S-9, AROCLOR 1254, Method: STANDARD PLATE) of the same molecule?
Its mutagenic call is “inactive; negative”.

What about the mutagenic call (Test System: AMES SALMONELLA TYPHIMURIUM, Strain/Indicator: TA1535, Metabolic Activation: RAT, LIVER, S-9, SODIUM PHENOBARBITAL, Method: STANDARD PLATE) of the same molecule?
Its mutagenic call is “inactive; negative”.

And the mutagenic call (Test System: AMES SALMONELLA TYPHIMURIUM, Strain/Indicator: TA1537, Metabolic Activation: HAMSTER, LIVER, S-9, AROCLOR 1254 (10%), Method: PREINCUBATION)?
Its mutagenic call is “inactive; negative”.

And the mutagenic call (Test System: AMES SALMONELLA TYPHIMURIUM, Strain/Indicator: TA1537, Metabolic Activation: NONE, Method: PREINCUBATION)?
Its mutagenic call is “inactive; negative”.

And the mutagenic call (Test System: AMES SALMONELLA TYPHIMURIUM, Strain/Indicator: TA1537, Metabolic Activation: NONE, Method: STANDARD PLATE)?
Its mutagenic call is “inactive; negative”.

And the mutagenic call (Test System: AMES SALMONELLA TYPHIMURIUM, Strain/Indicator: TA1537, Metabolic Activation: RAT, LIVER, S-9, AROCLOR 1254 (10%), Method: PREINCUBATION)?
Its mutagenic call is “inactive; negative”.

And the mutagenic call (Test System: AMES SALMONELLA TYPHIMURIUM, Strain/Indicator: TA1537, Metabolic Activation: RAT, LIVER, S-9, AROCLOR 1254, Method: STANDARD PLATE)?
Its mutagenic call is “inactive; negative”.

And the mutagenic call (Test System: AMES SALMONELLA TYPHIMURIUM, Strain/Indicator: TA1537, Metabolic Activation: RAT, LIVER, S-9, SODIUM PHENOBARBITAL, Method: STANDARD PLATE)?
Its mutagenic call is “inactive; negative”.

And the mutagenic call (Test System: AMES SALMONELLA TYPHIMURIUM, Strain/Indicator: TA1538, Metabolic Activation: NONE, Method: STANDARD PLATE)?
The mutagenic call was “inactive; negative”.

And the mutagenic call (Test System: AMES SALMONELLA TYPHIMURIUM, Strain/Indicator: TA1538, Metabolic Activation: RAT, LIVER, S-9, AROCLOR 1254, Method: STANDARD PLATE)?
The mutagenic call was “inactive; negative”.

And the mutagenic call (Test System: AMES SALMONELLA TYPHIMURIUM, Strain/Indicator: TA1538, Metabolic Activation: RAT, LIVER, S-9, SODIUM PHENOBARBITAL, Method: STANDARD PLATE)?
The mutagenic call was “inactive; negative”.

And the mutagenic call (Test System: MOUSE LYMPHOMA, Strain/Indicator: L5178Y (TK+/TK-), Metabolic Activation: NONE, Method: SUSPENSION/PLATE)?
Its mutagenic call is “active; positive. reevaluation of results: positive”.

What about the mutagenic call (Test System: MOUSE LYMPHOMA, Strain/Indicator: L5178Y (TK+/TK-), Metabolic Activation: RAT, LIVER, S-9, AROCLOR 1254, Method: SUSPENSION/PLATE) of the same molecule?
The mutagenic call was “inactive; negative. reevaluation of results: negative”.

And the mutagenic call (Test System: UDS RODENT CELLS, Strain/Indicator: SHE CELL-MEDIATED, Metabolic Activation: NONE, Method: LIQUID SCINTILLATION COUNTING (THYMIDINE INCORPORATION))?
The mutagenic call was “inactive; negative”.
